What was measured:
cleaved caspase-3 = test: IHC of cleaved caspase-3 in tumor tissues; assay type: in vivo, mice; conditions: for caspase-3 expression compared with the low dose treatments and the Dox5+dLGG5 combination: day 30, Dox 5 mg/kg i.v., CR-API 400 mg/kg, dLGG 25 mg/kg daily o.p.; for cleaved caspase-3 expression in tumor tissues compared with the vehicle control: day 30, all treatment groups
Procedure: (§1) The therapeutic effects of dLGG or dLGG-enriched CR-API fractions from C. rabens against TNBC were evaluated using an orthotopic tumor model. Briefly, mice were subcutaneously injected with 4T1 (murine TNBC) cells (5×10^6 cells per 100 μl PBS and 50 μl matrigel per mouse) into the fourth mammary fat pad under isoflurane anaesthesia. Tumor growth and body weight are monitored daily. After tumors grow to an approximate size of 150 mm^3 at day 7 post implantation, test mice are randomized into different groups (8 mice per group) and subjected to a three-week compound treatment scheme (FIG. 2). […] Dosage and frequency of doxorubicin treatment is based on maximum tolerable dose determined from in house toxicity experiments within the concentration range commonly used in animal studies (Bao L, Haque A, Jackson K, et al. (2011) Increased Expression of P-Glycoprotein Is Associated with Doxorubicin Chemoresistance in the Metastatic 4T1 Breast Cancer Model. The American Journal of Pathology. 2011; 178 (2):838-852). Effects of drug/compound/extracts are evaluated thrice a week by monitoring tumor size and body weight. Euthanasia by cervical dislocation are performed at day 30 post tumor implantation. Tumors, organ tissues (lungs, liver, kidneys, spleen) and serum were immediately collected and allocated either for western blotting (immediately flash frozen using N2 and stored at −80° C.) or for paraffin fixation (immediately soaked in 10% formalin solution for at least one week). Paraffin-embedded tissues were stored at room temperature.
(§2) Tumor and organ tissues were fixed in 10% buffered formalin and embedded in paraffin. Paraffin-embedded samples were sectioned (6 μm) and underwent hemotoxylin and eosin (H&E) or immunohistochemical (IHC) staining. Paraffin-embedded tissue sections were heat immobilized and deparaffinized using xylene and rehydrated in a graded series of ethanol with a final wash in distilled water. For antigen retrieval, citrate retrieval buffer and Decloaking Chamber (Biocare Medical) were used. Images were captured using AxioVision software (Carl Zeiss MicroImaging, Inc.).

Cav-1 = test: Western blot of tumor tissues, Cav-1; assay type: in vivo, mice; conditions: high dose dLGG (25 mg/kg), Dox5, Dox5+dLGG5
Procedure: as §1, with “Tumors, organ tissues (lungs, liver, kidneys, spleen) and serum were immediately collected and allocated either for western blotting (immediately flash frozen using N2 and stored at −80° C.) or for paraffin fixation (immediately soaked in 10% formalin solution for at least one week). Paraffin-embedded tissues were stored at room temperature.” left out

[1] = tested on: TNBC metastatic tumor nodules in liver; test: Distal metastasis to the liver (H&E, Ki-67 IHC); assay type: in vivo, mice; conditions: day 30; all dose groups (dLGG5, dLGG25, CR-API200, CR-API400, Dox5, Dox5+dLGG5) vs tumor control
Procedure: as §1, with “Tumors, organ tissues (lungs, liver, kidneys, spleen) and serum were immediately collected and allocated either for western blotting (immediately flash frozen using N2 and stored at −80° C.) or for paraffin fixation (immediately soaked in 10% formalin solution for at least one week). Paraffin-embedded tissues were stored at room temperature.” left out

[2] = Body weight of tumor-implanted mice; assay type: in vivo
Procedure: as §1, with “Tumors, organ tissues (lungs, liver, kidneys, spleen) and serum were immediately collected and allocated either for western blotting (immediately flash frozen using N2 and stored at −80° C.) or for paraffin fixation (immediately soaked in 10% formalin solution for at least one week). Paraffin-embedded tissues were stored at room temperature.” left out

Src (p-Src^419) = test: Western blot of tumor tissues, Src activation; assay type: in vivo, mice; conditions: all dLGG and CR-API treatments, Dox5+dLGG5, Dox5
Procedure: as §1, with “Tumors, organ tissues (lungs, liver, kidneys, spleen) and serum were immediately collected and allocated either for western blotting (immediately flash frozen using N2 and stored at −80° C.) or for paraffin fixation (immediately soaked in 10% formalin solution for at least one week). Paraffin-embedded tissues were stored at room temperature.” left out

COX-2 [3] = test: IHC of COX-2 in liver and lung tissues; assay type: in vivo, mice; conditions: day 30, dLGG 5 and 25, CR-API 200 and 400 mg/kg daily o.p., Dox 5 mg/kg every 3 days i.v., Dox5+dLGG5
Procedure: as §1, with “Tumors, organ tissues (lungs, liver, kidneys, spleen) and serum were immediately collected and allocated either for western blotting (immediately flash frozen using N2 and stored at −80° C.) or for paraffin fixation (immediately soaked in 10% formalin solution for at least one week). Paraffin-embedded tissues were stored at room temperature.” left out

FAK = test: Western blot of tumor tissues, FAK phosphorylation; assay type: in vivo, mice; conditions: high dose dLGG (25 mg/kg), high dose CR-API (400 mg/kg), Dox5, Dox5+dLGG5
Procedure: as §1, with “Tumors, organ tissues (lungs, liver, kidneys, spleen) and serum were immediately collected and allocated either for western blotting (immediately flash frozen using N2 and stored at −80° C.) or for paraffin fixation (immediately soaked in 10% formalin solution for at least one week). Paraffin-embedded tissues were stored at room temperature.” left out

[4] = tested on: 4T1 (murine TNBC) orthotopic tumor; test: 4T1 orthotopic breast cancer model: tumor growth and survival; assay type: in vivo, mice; conditions: for tumor volume compared with the tumor control: Dox 5 mg/kg every 3 days i.v. (P<0.0001), Dox5+dLGG5 (P=0.0015), dLGG 25 mg/kg daily o.p. (P=0.0015); for reduced tumor volumes compared with the tumor control group: endpoint day 30
Procedure: Female BALB/cByJNar1 mice (4-week-old) were supplied from National Laboratory Animal Center, Taipei, Taiwan and given a standard laboratory diet and distilled water ad libitum and kept on a 12-h light/dark cycle at 22±2° C. This study was conducted according to the institutional guidelines and approved by the Institutional Animal Care and Utilization Committee (IACUC) of Academia Sinica, Taiwan.
as §1

Rac1 = test: Western blot of tumor tissues, Rac1; assay type: in vivo, mice; conditions: high dose dLGG (25 mg/kg), Dox5, Dox5+dLGG5
Procedure: as §1, with “Tumors, organ tissues (lungs, liver, kidneys, spleen) and serum were immediately collected and allocated either for western blotting (immediately flash frozen using N2 and stored at −80° C.) or for paraffin fixation (immediately soaked in 10% formalin solution for at least one week). Paraffin-embedded tissues were stored at room temperature.” left out

[5] = tested on: TNBC metastatic tumor nodules in lung; test: Distal metastasis to the lungs (H&E, Ki-67 IHC); assay type: in vivo, mice; conditions: for tumor metastasis nodules in the lung tissues: day 30, all dose groups (dLGG5, dLGG25, CR-API200, CR-API400, Dox5, Dox5+dLGG5) vs tumor control
Procedure: as §1, §2

CYP2C19 = test: Western blot of tumor tissues, CYP2C19; assay type: in vivo, mice; conditions: all dLGG and CR-API groups, Dox5+dLGG5 compared with Dox5 alone
Procedure: as §1, with “Tumors, organ tissues (lungs, liver, kidneys, spleen) and serum were immediately collected and allocated either for western blotting (immediately flash frozen using N2 and stored at −80° C.) or for paraffin fixation (immediately soaked in 10% formalin solution for at least one week). Paraffin-embedded tissues were stored at room temperature.” left out

[6] = tested on: SKBR3 (Her2+ breast cancer cells); test: MTT cell viability assay, SKBR3; assay type: cell-based; conditions: Homo sapiens, SK-BR-3; SKBR3, 24 hours, tested concentration range 5-100 μM
Procedure: (§3) Immortalized normal human mammary epithelial cells (MCF10A) and breast cancer cell lines including HER2+ (SKBR3), ER+ (MCF7), triple negative (MDA-MB-231), and murine TNBC cell line 4T1 were obtained from the ATCC (USA). Cells were expanded and frozen at low passage after the receipt of the original stocks. Cells were thawed and used within 15 passages.
(§4) Cells (3×10^3 cells/well) were seeded in 96-well plates overnight and treated for 24 hours. Cell growth was determined by MTT-based colorimetric assay. Viability of the cells treated with vehicle-only (0.5% DMSO) was defined as 100% viability. Cell survival after compound treatment was calculated using the following formula: viable cell number (%)=[OD570 (treated cells)/OD570 (vehicle control)]×100.

COX-2 [7] = test: Western blot of tumor tissues, COX-2; assay type: in vivo, mice; conditions: all dLGG and CR-API groups, Dox5+dLGG5 compared with Dox5 alone
Procedure: as §1, with “Tumors, organ tissues (lungs, liver, kidneys, spleen) and serum were immediately collected and allocated either for western blotting (immediately flash frozen using N2 and stored at −80° C.) or for paraffin fixation (immediately soaked in 10% formalin solution for at least one week). Paraffin-embedded tissues were stored at room temperature.” left out

[8] = tested on: MDA-MB-231 (ER−, PR− and Her2− TNBC cells); test: MTT cell viability assay, MDA-MB-231; assay type: cell-based; conditions: human derived TNBC cells, 24 hours
Procedure: as §3, §4

Ki67 = test: IHC of Ki67 in tumor tissues; assay type: in vivo, mice; conditions: day 30, dLGG and CR-API regardless of dose, Dox5, Dox5+dLGG5, vs tumor control
Procedure: as §1, with “Tumors, organ tissues (lungs, liver, kidneys, spleen) and serum were immediately collected and allocated either for western blotting (immediately flash frozen using N2 and stored at −80° C.) or for paraffin fixation (immediately soaked in 10% formalin solution for at least one week). Paraffin-embedded tissues were stored at room temperature.” left out

[9] = tested on: MCF7 (ER+ breast cancer cells); test: MTT cell viability assay, MCF7; assay type: cell-based; conditions: Homo sapiens; MCF7, 24 hours, tested concentration range 5-100 μM
Procedure: as §3, §4

4T1 TNBC cells = test: MTT cell viability assay, 4T1; assay type: cell-based; conditions: Mus musculus, murine derived TNBC cells 4T1, 24 hours
Procedure: as §3, §4

[10] = tested on: MCF10A (normal mammary epithelial cells); test: MTT cell viability assay, MCF10A; assay type: cell-based, human; conditions: 24 h treatment
Procedure: as §3, §4

[11] = dLGG 25 mg/kg, CR-API 400 mg/kg daily o.p., Dox 5 mg/kg every 3 days i.v., Dox5+dLGG5

SMILES | caspase-3 expression compared with the low dose treatments and the Dox5+dLGG5 combination (cleaved caspase-3) | cleaved caspase-3 expression in tumor tissues compared with the vehicle control (cleaved caspase-3) | Cav-1 expression level in tumor tissues (Cav-1) | tumor metastasis nodules in the liver tissues [1] | activation of Src (p-Src^419) in tumor tissues compared with the tumor control (Src (p-Src^419)) | COX-2 expression in liver and lung tissues (COX-2 [3]) | phosphorylation of FAK in tumor tissues (FAK) | tumor volume compared with the tumor control ([4]; day 30) | Rac1 expression level in tumor tissues (Rac1) | metastatic tumor nodules in lung (H&E) [5, 11] | tumor metastasis nodules in the lung tissues [5] | other results
COc1cccc2c1C(=O)c1c(O)c3c(c(O)c1C2=O)C[C@@](O)(C(=O)CO)C[C@@H]3O[C@H]1C[C@H](N)[C@H](O)[C@H](C)O1 [Dox, doxorubicin, reference compound] | higher caspase-3 expression | increased expression of cleaved caspase-3 | decreased significantly | less compared with the tumor control group | much less or no effect at all | further induce COX-2 expression | significantly inhibited | significant tumor volume reduction | decreased significantly | not detectable | less compared with the tumor control group | loss of weight ([2]; Dox5: 5 mg/kg every 3 days i.v., day 30): 10 % of starting body weights; reduction in tumor weight ([4]; Dox5: 5 mg/kg every 3 days i.v., day 30, P<0.05): 60%
CC/C=C\C/C=C\C/C=C\CCCCCCCC(=O)OC[C@H](CO[C@@H]1O[C@H](CO)[C@H](O)[C@H](O)[C@H]1O)OC(=O)CCCCCCC/C=C\C/C=C\C/C=C\CC [dLGG, 1,2-di-O-α-linolenoyl-3-O-β-galactopyranosyl-sn-glycerol] | higher caspase-3 expression | increased expression of cleaved caspase-3 | decreased significantly | less compared with the tumor control group | significantly inhibited | decreased in a dose-dependent manner | significantly inhibited | significant tumor volume reduction | decreased significantly | not detectable | less compared with the tumor control group | CYP2C19 expression level in tumor tissues (CYP2C19): dose dependent effect on attenuating the expression levels; IC50 [6]: > 100 µM; COX-2 expression level in tumor tissues (COX-2 [7]): dose dependent effect on attenuating the expression levels; IC50 [8]: 55 µM; Ki-67 overexpression in tumor tissues (Ki67): attenuated; IC50 [9]: > 100 µM; weight loss ([2]; dLGG 5 and 25 mg/kg, CR-API 200 and 400 mg/kg daily o.p., given alone): No significant weight loss; IC50 (4T1 TNBC cells): 55 µM; survival ([4]; dLGG5: 5 mg/kg daily o.p., day 30): 100%; reduced tumor volumes compared with the tumor control group ([4]; dLGG5: 5 mg/kg daily o.p., P<0.05): 18%; survival ([4]; dLGG25: 25 mg/kg daily o.p., day 30): 100%; reduced tumor volumes compared with the tumor control group ([4]; dLGG25: 25 mg/kg daily o.p., P<0.05): 47%; metastatic tumor nodules in lung (H&E) ([5]; low dose: dLGG 5 mg/kg, CR-API 200 mg/kg daily o.p.): visible; cell survival [10]: no significant change in cell survival
